In brackets after ≈: the same amount, converted by molar mass. Like-named read-outs stand apart in the source and are kept apart here.
How the values were obtained:
[1] = system: macrophage J774 cells line; test: Cytotoxicity assay (MTT) in macrophage J774 cells; format: cell-based; details: J774 cells, 24 hrs, MTT
Description: The study was carried out using macrophage J774 cells line (ATCC-USA). Cells were grown in Rosewell Park Memorial Institute Medium (RPMI) containing 10% fetal calf serum (FCS) and supplemented with 75 mg/liter penicillin, 100 mg/liter streptomycin, 110 mg/liter Sodium pyruvate, 2.38 gm/liter HEPES, 0.05 mM 2 β-mercaptoethanol, and 2 gm/liter NaHCO3, in a humidified atmosphere in 5% CO2 at 37° C., and were sub-cultured at 1:4 ratio once a week.
Cells were plated at a density of 3×10^4 cells/cm^2 and maintained in culture medium for 12 hours. Cells were seeded onto 96-well flat bottom plates and FCS was reduced to 5% for the experiment. Stock solutions of compounds IA1 to IIC10 were prepared fresh to avoid oxidation. Cells were incubated with the compounds (40 μg/ml) for 24 hrs.
After the completion of incubation, the medium was removed and cell viability was evaluated by assaying for the ability of functional mitochondria to catalyze the reduction of 3-(4,5-dimethylthiazol-2-yl)-2,5-diphenyltetrazolium bromide (MTT) to form formazan salt by mitochondrial dehydrogenases, and determined by Elisa reader at 450 nm (Multiskan Spectrum; Thermo Electron Corporation, USA). Percentage cytotoxicity was calculated with respect to the untreated cells.

[2] = system: M. tuberculosis H37Rv (ATCC 27294); test: MIC by broth dilution method, M. tuberculosis H37Rv; format: cell-based; details: Mycobacterium tuberculosis, 504 h
[3] = broth dilution, 3 weeks, read-out: MIC M. tb H37Rv
[4] = text summary: sensitive H37Rv as well as MDR and XDR strains of M. tuberculosis, read-out: MIC value

Cc1ccc(Oc2nnnn2-c2ccc(OC[C@@]3(C)Cn4cc([N+](=O)[O-])nc4O3)cc2)cc1 [IB9, (R)-2-{4-[5-(4-methylphenoxy)-1H-tetrazol-1-yl]phenoxymethyl}-2,3-dihydro-2-methyl-6-nitroimidazo[2,1-b]oxazole]
Cytotoxicity [1]: >40 µg/mL
MIC [2, 3]: 4 µg/mL (≈ 8.9 µM)
MIC [2, 4]: 1 to 4 µg/mL (≈ 2.23 to 8.9 µM)

CC(C)c1ccc(OCc2cn(-c3cccc(OC[C@@]4(C)Cn5cc([N+](=O)[O-])nc5O4)c3)nn2)cc1 [IA38]
Cytotoxicity [1]: >40 µg/mL
MIC [2, 3]: 4 µg/mL (≈ 8.15 µM)

C[C@]1(COc2ccc(-n3nnnc3-c3ccc(OC(F)(F)F)cc3)cc2)Cn2cc([N+](=O)[O-])nc2O1 [IB2, (R)-2-{4-[5-(4-trifluoromethoxyphenyl)-1H-tetrazol-1-yl]phenoxymethyl}-2,3-dihydro-2-methyl-6-nitroimidazo[2,1-b]oxazole]
Cytotoxicity [1]: >40 µg/mL
MIC [2, 3]: 2 µg/mL (≈ 3.97 µM)
MIC [2, 4]: 1 to 4 µg/mL (≈ 1.99 to 7.95 µM)

C[C@]1(COc2cccc(-n3cc(-c4ccc(F)cc4F)nn3)c2)Cn2cc([N+](=O)[O-])nc2O1 [IA20, (R)-2-{3-[4-(2,4-difluorophenyl)-1H-1,2,3-triazol-1-yl]phenoxymethyl}-2,3-dihydro-2-methyl-6-nitroimidazo[2,1-b]oxazole]
Cytotoxicity [1]: >40 µg/mL
MIC [2, 3]: 4 µg/mL (≈ 8.8 µM)

C[C@]1(COc2ccc(-n3nnnc3Oc3ccc(C(F)(F)F)cc3)cc2)Cn2cc([N+](=O)[O-])nc2O1 [IB8, (R)-2-{4-[5-(4-trifluoromethylphenoxy)-1H-tetrazol-1-yl]phenoxymethyl}-2,3-dihydro-2-methyl-6-nitroimidazo[2,1-b]oxazole]
Cytotoxicity [1]: >40 µg/mL
MIC [2, 3]: 4 µg/mL (≈ 7.95 µM)
MIC [2, 4]: 1 to 4 µg/mL (≈ 1.99 to 7.95 µM)

Cc1ccc(-c2nnnn2-c2ccc(OC[C@@]3(C)Cn4cc([N+](=O)[O-])nc4O3)cc2)cc1 [IB3, (R)-2-{4-[5-(4-methylphenyl)-1H-tetrazol-1-yl]phenoxymethyl}-2,3-dihydro-2-methyl-6-nitroimidazo[2,1-b]oxazole]
Cytotoxicity [1]: >40 µg/mL
MIC [2, 3]: 4 µg/mL (≈ 9.23 µM)
MIC [2, 4]: 1 to 4 µg/mL (≈ 2.31 to 9.23 µM)

C[C@]1(COc2ccc(S(=O)(=O)Nc3ccc(OC(F)(F)F)cc3)cc2)Cn2cc([N+](=O)[O-])nc2O1 [IIB2, (R)-4-{(2-methyl-6-nitro-2,3-dihydroimidazo[2,1-b]oxazol-2-yl)methoxy}-N-(4 trifluoromethoxyphenyl)benzenesulfonamide]
Cytotoxicity [1]: >40 µg/mL
MIC [2, 3]: 2 µg/mL (≈ 3.89 µM)

Cc1ccc(OCc2cn(-c3cccc(OC[C@@]4(C)Cn5cc([N+](=O)[O-])nc5O4)c3)nn2)cc1 [IA37]
Cytotoxicity [1]: >40 µg/mL
MIC [2, 3]: 4 µg/mL (≈ 8.65 µM)

C[C@]1(COc2ccc(-n3nnnc3-c3ccc(F)cc3)cc2)Cn2cc([N+](=O)[O-])nc2O1 [IB4, (R)-2-{4-[5-(4-fluorophenyl)-1H-tetrazol-1-yl]phenoxymethyl}-2,3-dihydro-2-methyl-6-nitroimidazo[2,1-b]oxazole]
Cytotoxicity [1]: >40 µg/mL
MIC [2, 3]: 4 µg/mL (≈ 9.15 µM)
MIC [2, 4]: 1 to 4 µg/mL (≈ 2.29 to 9.15 µM)

C[C@]1(COc2ccc(-c3cc(-c4cccc(F)c4)on3)cc2)Cn2cc([N+](=O)[O-])nc2O1 [IC8, (R)-2-{4-[5-(3-fluorophenyl)isoxazol-3-yl]phenoxymethyl}-2,3-dihydro-2-methyl-6-nitroimidazo[2,1-b]oxazole]
Cytotoxicity [1]: >40 µg/mL
MIC [2, 3]: 2 µg/mL (≈ 4.58 µM)

C[C@]1(COc2ccc(-n3nnnc3Oc3ccc(F)cc3)cc2)Cn2cc([N+](=O)[O-])nc2O1 [IB7, (R)-2-{4-[5-(4-fluorophenoxy)-1H-tetrazol-1-yl]phenoxymethyl}-2,3-dihydro-2-methyl-6-nitroimidazo[2,1-b]oxazole]
Cytotoxicity [1]: >40 µg/mL
MIC [2, 3]: 2 µg/mL (≈ 4.41 µM)
MIC [2, 4]: 1 to 4 µg/mL (≈ 2.21 to 8.82 µM)

CCc1ccc(OCc2cc(-c3ccc(OC[C@@]4(C)Cn5cc([N+](=O)[O-])nc5O4)cc3)no2)cc1 [IC19, (R)-2-{4-[5-(4-ethylphenoxymethyl)isoxazol-3-yl]phenoxymethyl}-2,3-dihydro-2-methyl-6-nitroimidazo[2,1-b]oxazole]
Cytotoxicity [1]: >40 µg/mL
MIC [2, 3]: 2 µg/mL (≈ 4.2 µM)

C[C@]1(COc2ccccc2-n2cc(-c3ccc(C(F)(F)F)cc3)nn2)Cn2cc([N+](=O)[O-])nc2O1 [IA22, (R)-2-{2-[4-(4-trifluoromethylphenyl)-1H-1,2,3-triazol-1-yl]phenoxymethyl}-2,3-dihydro-2-methyl-6-nitroimidazo[2,1-b]oxazole]
Cytotoxicity [1]: >40 µg/mL
MIC [2, 3]: 4 µg/mL (≈ 8.22 µM)

C[C@]1(COc2ccc(S(=O)(=O)N3CCN(c4ccccc4)CC3)cc2)Cn2cc([N+](=O)[O-])nc2O1 [IIC1, (R)-2-{4-(4-phenylpiperazin-1-yl)sulfonylphenoxymethyl}-2,3-dihydro-2-methyl-6-nitroimidazo[2,1-b]oxazole]
Cytotoxicity [1]: >40 µg/mL
MIC [2, 3]: 1 µg/mL (≈ 2 µM)

C[C@]1(COc2ccc(-n3cc(-c4ccccc4F)nn3)cc2)Cn2cc([N+](=O)[O-])nc2O1 [IA4, (R)-2-{4-[4-(2-fluorophenyl)-1H-1,2,3-triazol-1-yl]phenoxymethyl}-2,3-dihydro-2-methyl-6-nitroimidazo[2,1-b]oxazole]
Cytotoxicity [1]: >40 µg/mL
MIC [2, 3]: 1 µg/mL (≈ 2.29 µM)

C[C@]1(COc2ccc(NC(=S)Nc3ccc(C(F)(F)F)cc3)cc2)Cn2cc([N+](=O)[O-])nc2O1 [IIA10, (R)-1-(4-trifluoromethylphenyl)-3-{4-(2-methyl-6-nitro-2,3-dihydroimidazo[2,1-b]oxazol-2-yl)methoxyphenyl}thiourea]
Cytotoxicity [1]: >40 µg/mL
MIC [2, 3]: 4 µg/mL (≈ 8.11 µM)

CCC(C)c1ccc(OCc2cc(-c3ccc(OC[C@@]4(C)Cn5cc([N+](=O)[O-])nc5O4)cc3)no2)cc1 (stereo partly drawn) [IC20, (R)-2-{4-[5-(4-sec-butylphenoxymethyl)isoxazol-3-yl]phenoxymethyl}-2,3-dihydro-2-methyl-6-nitroimidazo[2,1-b]oxazole]
Cytotoxicity [1]: >40 µg/mL
MIC [2, 3]: 2 µg/mL (≈ 3.96 µM)

C[C@]1(COc2cccc(-n3cc(COc4ccccc4F)nn3)c2)Cn2cc([N+](=O)[O-])nc2O1 [IA36]
Cytotoxicity [1]: >40 µg/mL
MIC [2, 3]: 2 µg/mL (≈ 4.29 µM)

C[C@]1(COc2ccc(-n3cc(-c4cccc(F)c4)nn3)cc2)Cn2cc([N+](=O)[O-])nc2O1 [IA10, (R)-2-{4-[4-(3-fluorophenyl)-1H-1,2,3-triazol-1-yl]phenoxymethyl}-2,3-dihydro-2-methyl-6-nitroimidazo[2,1-b]oxazole]
Cytotoxicity [1]: >40 µg/mL
MIC [2, 3]: 2 µg/mL (≈ 4.58 µM)

C[C@]1(COc2ccccc2-n2cc(-c3ccc(OC(F)(F)F)cc3)nn2)Cn2cc([N+](=O)[O-])nc2O1 [IA23, (R)-2-{2-[4-(4-trifluoromethoxyphenyl)-1H-1,2,3-triazol-1-yl]phenoxymethyl}-2,3-dihydro-2-methyl-6-nitroimidazo[2,1-b]oxazole]
Cytotoxicity [1]: >40 µg/mL
MIC [2, 3]: 4 µg/mL (≈ 7.96 µM)

C[C@]1(COc2ccc(NC(=S)Nc3ccc(OC(F)(F)F)cc3)cc2)Cn2cc([N+](=O)[O-])nc2O1 [IIA8, (R)-1-(4-trifluoromethoxyphenyl)-3-{4-(2-methyl-6-nitro-2,3-dihydroimidazo[2,1-b]oxazol-2-yl)methoxyphenyl}thiourea]
Cytotoxicity [1]: >40 µg/mL
MIC [2, 3]: 2 µg/mL (≈ 3.93 µM)

C[C@]1(COc2ccc(-n3nnnc3Oc3ccc(OC(F)(F)F)cc3)cc2)Cn2cc([N+](=O)[O-])nc2O1 [IB10, (R)-2-{4-[5-(4-trifluoromethoxyphenoxy)-1H-tetrazol-1-yl]phenoxymethyl}-2,3-dihydro-2-methyl-6-nitroimidazo[2,1-b]oxazole]
Cytotoxicity [1]: >40 µg/mL
MIC [2, 3]: 1 µg/mL (≈ 1.93 µM)
MIC [2, 4]: 1 to 4 µg/mL (≈ 1.93 to 7.7 µM)

C[C@]1(COc2cccc(-n3cc(-c4ccc(F)cc4)nn3)c2)Cn2cc([N+](=O)[O-])nc2O1 [IA17, (R)-2-{3-[4-(4-fluorophenyl)-1H-1,2,3-triazol-1-yl]phenoxymethyl}-2,3-dihydro-2-methyl-6-nitroimidazo[2,1-b]oxazole]
Cytotoxicity [1]: >40 µg/mL
MIC [2, 3]: 2 µg/mL (≈ 4.58 µM)

CN(c1ccccc1)S(=O)(=O)c1ccc(OC[C@@]2(C)Cn3cc([N+](=O)[O-])nc3O2)cc1 [IIB4, (R)—N-methyl-4-{(2-methyl-6-nitro-2,3-dihydroimidazo[2,1-b]oxazol-2-yl)methoxy}-N-phenylbenzenesulfonamide]
Cytotoxicity [1]: >40 µg/mL
MIC [2, 3]: 4 µg/mL (≈ 9 µM)

C[C@]1(COc2ccc(S(=O)(=O)N3CCN(c4ccc(F)cc4)CC3)cc2)Cn2cc([N+](=O)[O-])nc2O1 [IIC2, (R)-2-{4-[4-(4-fluorophenyl)piperazin-1-yl]sulfonylphenoxymethyl}-2,3-dihydro-2-methyl-6-nitroimidazo[2,1-b]oxazole]
Cytotoxicity [1]: >40 µg/mL
MIC [2, 3]: 2 µg/mL (≈ 3.86 µM)

C[C@]1(COc2ccc(-n3cc(-c4ccc(F)cc4F)nn3)cc2)Cn2cc([N+](=O)[O-])nc2O1 [IA7, (R)-2-{4-[4-(2,4-difluorophenyl)-1H-1,2,3-triazol-1-yl]phenoxymethyl}-2,3-dihydro-2-methyl-6-nitroimidazo[2,1-b]oxazole]
Cytotoxicity [1]: >40 µg/mL
MIC [2, 3]: 2 µg/mL (≈ 4.4 µM)

CCCCCCCc1cn(-c2ccc(OC[C@@]3(C)Cn4cc([N+](=O)[O-])nc4O3)cc2)nn1 [IA16, (R)-2-{4-[4-heptyl-1H-1,2,3-triazol-1-yl]phenoxymethyl}-2,3-dihydro-2-methyl-6-nitroimidazo[2,1-b]oxazole]
Cytotoxicity [1]: >40 µg/mL
MIC [2, 3]: 4 µg/mL (≈ 9.08 µM)

From US9845330B2, “6-nitro-2,3-dihydroimidazo[2,1-b]oxazoles and a process for the preparation thereof” (priority 2013, dated 2017)
